The values that follow are results of earlier work, collected in patent publication US12527815B2, “Aqueous formulation including dissolved hydrogen gas and minerals and additives” (BEST PLANET SCIENCE LLC, priority 2023, dated 2026).

The conditions of this series: partial pressure of one atm.

As for `[HH]` [hydrogen gas, hydrogen], the “equilibrium concentration (saturation) of hydrogen gas in water” value is on record as 1.57 mg/L.
